Results taken from US20040014676A1, “SRC kinase inhibitors useful for treating osteoporosis” (priority 2001, published 2004).

Target: T1, Src kinase (Homo sapiens, UniProt P12931)
T1 construct: purchased Upstate Bioteolnology (sic; Upstate Biotechnology); later HMR stock 27597-019E1 #14-117
Test: Phosphorylation assay of Src kinase inhibitors (radiometric, 96 well filter plate)
Assay type: biochemical
Settings: IC50, duplicates, tested in the range of 400-0.098 µM; 10 µM peptide substrate (FIYGAFKKKKNH2), 5 µM unlabeled ATP, room temperature 30 min
Experimental: The present invention provides novel compounds of Formulae I through XVIII discussed above. The following compounds which fall within Formulae I through XVIII are characterized by structure, IUPAC name and activity using phosphorylation assay for protein tyrosine Src kinase.
Phosphorylation Assay of Src Kinase Inhibitors
The activity of Src kinase was measured in a 96 well plate phosphorylation assay where the transfer of gamma phosphate from ATP to peptide substrate was measured radiometrically. […] Ki values were determined experimentally for some of the inhibitors. The phosphocellulose filter plates (Millipore catalog #MAPH NOB) were prewet prior to the phosphorylation assay by addition of 100 1 per well of 30 mM MES buffer+0.4 mg/ml BSA. After a 20-minute incubation, the buffer was removed completely via a Millipore vacuum manifold. The phosphorylation assay was then set up in the filter plates in a total volume per well of 60 1. The 60 1 consisted of compound (see concentration ranges above), a 1:100 dilution of Src kinase (originally Upstate Bioteolnology, #14-117; later HMR stock 27597-019E1) or assay buffer alone (for no enzyme control wells), 10 M peptide substrate (FIYGAFKKKKNH2), 5 M unlabeled ATP and a 1:500 dilution of P-ATP (New England Nuclear, catalog #NEG-602H, 2000 Ci/mmol). The reaction was mixed and incubated at room temperature for 30 min. The kinase reactions were stopped by addition of 150 mM H3PO4 and incubated for 10 minutes. The filter plate wells were filtered and washed seven times with 200 1 per well of 150 mM H3PO4. Finally, the filter plate was placed into a Packard plate adapter (Packard catalog #600517B), 35 1 of Microscint-20 (Packard catalog #6013621) was added to each well, the plate was sealed (TopSeal A sealers; Packard catalog #6005185) and counted on a Packard TopCount.

T1 sequence (P12931 whole entry): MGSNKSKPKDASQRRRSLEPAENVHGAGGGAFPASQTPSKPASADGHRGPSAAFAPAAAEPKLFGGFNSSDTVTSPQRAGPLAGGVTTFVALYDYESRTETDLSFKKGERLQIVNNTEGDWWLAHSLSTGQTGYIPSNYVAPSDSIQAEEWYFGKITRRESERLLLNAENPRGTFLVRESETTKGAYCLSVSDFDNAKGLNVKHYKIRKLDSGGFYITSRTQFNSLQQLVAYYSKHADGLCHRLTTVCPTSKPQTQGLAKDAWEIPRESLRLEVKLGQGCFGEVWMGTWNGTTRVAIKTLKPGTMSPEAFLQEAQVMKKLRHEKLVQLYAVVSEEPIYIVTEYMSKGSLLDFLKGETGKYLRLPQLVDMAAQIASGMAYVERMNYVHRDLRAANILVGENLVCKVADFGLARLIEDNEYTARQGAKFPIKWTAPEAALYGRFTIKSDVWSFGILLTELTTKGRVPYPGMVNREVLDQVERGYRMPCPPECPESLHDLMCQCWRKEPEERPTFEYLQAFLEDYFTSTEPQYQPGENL

**Q.** Which IC50 does the source give for `NC(=O)CNC(=O)c1cc2ccccc2cc1OCCNC(=O)[C@@H](N)Cc1ccc(O)cc1` [Example 92, 3-[2-[[[1-OXO-2(S)-AMINO-3-HYDROXY- PHENYL)]PROPYL]AMINO]ETHOXY]NAPHTHALENE-2-(N-] here?
**A.** Its IC50 is 3400 nM.

Same assay, conditions: duplicates, tested in the range of 400-0.098 µM; 10 µM peptide substrate (FIYGAFKKKKNH2), 5 µM unlabeled ATP, room temperature 30 min; read-out: IC50

**Q.** For `NC(=O)CNC(=O)c1cc2ccccc2cc1OCCCCNC(=O)[C@@H](N)Cc1ccc(O)c(I)c1` [Example 46, 3-[[4-[[2(S)-AMINO-3(3-IODO-4- HYDROXYPHENYL)-1-OXO]PROPYL]- AMINO]BUTOXY]-NAPHTHALENE-2- (N-ACETAMIDO)CARBOXAMIDE], which IC50 is on record?
**A.** Its IC50 is 310 nM.

**Q.** Which IC50 does the source give for `NC(=O)CNC(=O)c1cc2ccccc2cc1OCCCCNC(=O)[C@@H](N)Cc1ccc([N+](=O)[O-])cc1` [Example 45, 3-[[4-[[2(S)-AMINO-3(4-NITROPHENYL)- 1-OXO]PROPYL]AMINO]BUTOXY]- NAPHTHALENE-2-(N-ACETAMIDO)- CARBOXAMIDE] here?
**A.** The IC50 was 1470 nM.

**Q.** How did the IC50 turn out when `NC(=O)CNC(=O)c1cc2ccccc2cc1OCCCCNC(=O)[C@@H](N)C1CCCCC1` [Example 50, 3-[[[4-(2(S)-AMINO-2-CYCLOHEXYL-1- OXO)ETHYL]AMINO]BUTOXY]- NAPHTHALENE-2-(N-ACETAMIDO)- CARBOXAMIDE] was run?
**A.** The IC50 was 2000 nM.

**Q.** For `NC(=O)CNC(=O)c1cc2ccccc2cc1OCCCCNC(=O)[C@@H](N)Cc1ccc(O)c([N+](=O)[O-])c1` [Example 54, 3-[4-[[[2(S)-AMINO-3-(3-NITRO-4- HYDROXY)PHENYL-1-OXO]PROPYL]- AMINO]BUTOXY]-NAPHTHALENE-2- (N-ACETAMIDO)CARBOXAMIDE], which IC50 is on record?
**A.** Its IC50 is 660 nM.

**Q.** `NC(=O)CNC(=O)[C@@H](Cc1cccc2ccccc12)NCCCCCNC(=O)[C@H](N)Cc1csc2ccccc12` [Example 82, N-[((R)NAPHTH-1-YL)[(AMINO)- (CARBONYL)(METHYL)(AMINO)- (CARBONYL)]METHYL]-5-[N-[[N-[1- OXO-2-AMINO-3-(R)(BENZOTHIOPHEN- 3-YL)]PROPYL]AMINO]PENTYLAMINE] was tested. Which IC50 did it give?
**A.** Its IC50 is 6000 nM.

**Q.** For `CNC(=O)C(Cc1ccc(-c2noc(C)n2)cc1)C(=O)NCCCCOc1cc2ccccc2cc1C(=O)NCC(N)=O` (stereo not shown) [Compound 134, N-(4-{3-[N-(carbamoylmethyl)carbamoyl](2-naphthyloxy)}butyl)-N′-methyl-2-{[4-(5-methyl(1,2,4-oxadiazol-3-yl))phenyl]methyl}propane-1,3-diamide], which IC50 is on record?
**A.** The IC50 was 76000 nM.

**Q.** For `NC(=O)CNC(=O)c1cc2ccccc2cc1OCCCCNC(=O)[C@H](N)CSCc1ccccc1` [Example 63, 3-[4-[[[1-OXO-2(S)-AMINO- 3(BENZYLMERCAPTO)]PROPYL]- AMINO]BUTOXY]-NAPHTHALENE-2- (N-ACETAMIDO)CARBOXAMIDE], which IC50 is on record?
**A.** The IC50 was 2230 nM.

**Q.** How did the IC50 turn out when `NC(=O)CNC(=O)c1cc2ccccc2cc1OCCCCNC(=O)[C@H](N)Cc1ccccc1` [Example 53, 3-[4-[[[2(R)-AMINO-3-PHENYL-1- OXO]PROPYL]AMINO]BUTOXY]- NAPHTHALENE-2-(N-ACETAMIDO)- CARBOXAMIDE] was run?
**A.** Its IC50 is 1400 nM.

**Q.** Which IC50 does the source give for `C=CCOC(=O)C(CCCOc1cc2ccccc2cc1C(=O)NCC(N)=O)NC(=O)[C@H](N)Cc1csc2ccccc12` (stereo partly drawn) [Example 98, 3-[[4-[[1-OXO-2(S)-AMINO-3-(BENZO- THIOPHEN-3-YL)]PROPYL]AMINO][4- ACRYLOXYCARBOXY]BUTOXY]NAPHTHALENE-2-(N-ACETAMIDO)- CARBOXAMIDE] here?
**A.** Its IC50 is 2500 nM.

**Q.** Which IC50 does the source give for `NC(=O)CNC(=O)c1cc2ccccc2cc1OCCCCNC(=O)[C@@H](N)Cc1ccccn1` [Example 47, 3-[[4-[[2(S)-AMINO-3(PYRIDIN-2-YL)-1- OXO]PROPYL]AMINO]BUTOXY]- NAPHTHALENE-2-(N-ACETAMIDO)- CARBOXAMIDE] here?
**A.** The IC50 was 17000 nM.

**Q.** With `NC(=O)CC(=O)Nc1cc2ccccc2cc1OCCCCNC(=O)[C@@H](N)Cc1csc2ccccc12` [Compound 152, (2S)-2-amino-3-benzo[b]thiophen-3-yl-N-{4-[3-(2-carbamoylacetylamino)(2-naphthyloxy)]butyl}propanamide] as the compound, how does the IC50 read?
**A.** The IC50 was 1000 nM.

**Q.** With `NC(=O)CNC(=O)c1cc2ccccc2cc1OCCCCNC(=O)C1Cc2ccc(O)cc2CN1` (stereo not shown) [Example 20, 3-[N-[[(7-HYDROXY)-1,2,3,4-TETRA- HYDROISOQUINOLIN-3-YL]- CARBONYL]AMINO]BUTOXY]- NAPHTHALENE-2-[N-(2- AMIDOMETHYL)]CARBOXAMIDE] as the compound, how does the IC50 read?
**A.** The IC50 was 3800 nM.
